Like-named read-outs stand apart in the source and are kept apart here.
Assays:
[1] = biological target: T1, panel of 255 wild-type kinases (Homo sapiens, UniProt Q9BZL6); assay: Kinase panel profiling at 1 µmol/L (MSA or IMAP), percentage inhibition; type: biochemical; settings: kinase PKD2; 1 µmol/L single concentration; read-out: %-inhibition at 1 µmol/L, PKD2
T1 sequence (Q9BZL6 1-878): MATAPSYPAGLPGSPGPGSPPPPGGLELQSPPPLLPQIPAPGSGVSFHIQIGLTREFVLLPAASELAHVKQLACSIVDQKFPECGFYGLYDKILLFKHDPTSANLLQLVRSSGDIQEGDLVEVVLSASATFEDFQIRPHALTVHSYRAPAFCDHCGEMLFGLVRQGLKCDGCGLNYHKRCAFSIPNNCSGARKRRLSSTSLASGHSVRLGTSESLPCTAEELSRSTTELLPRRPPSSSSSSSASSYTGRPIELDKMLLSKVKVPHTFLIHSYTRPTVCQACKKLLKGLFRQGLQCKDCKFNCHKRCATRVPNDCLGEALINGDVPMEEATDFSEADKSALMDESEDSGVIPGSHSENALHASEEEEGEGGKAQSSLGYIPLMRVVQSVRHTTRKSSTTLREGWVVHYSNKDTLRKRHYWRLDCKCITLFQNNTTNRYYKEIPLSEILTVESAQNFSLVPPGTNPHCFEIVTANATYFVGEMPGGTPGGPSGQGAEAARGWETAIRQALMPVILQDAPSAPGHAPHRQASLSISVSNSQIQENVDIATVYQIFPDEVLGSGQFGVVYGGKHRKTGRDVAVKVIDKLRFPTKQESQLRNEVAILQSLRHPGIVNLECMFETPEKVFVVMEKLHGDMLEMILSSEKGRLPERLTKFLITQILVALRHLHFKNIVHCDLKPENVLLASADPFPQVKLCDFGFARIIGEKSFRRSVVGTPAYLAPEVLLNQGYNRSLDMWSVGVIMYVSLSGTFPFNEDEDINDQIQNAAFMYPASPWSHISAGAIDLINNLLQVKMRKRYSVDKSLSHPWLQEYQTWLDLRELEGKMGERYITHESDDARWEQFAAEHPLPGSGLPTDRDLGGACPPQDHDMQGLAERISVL

AP-1060 (ETV6-NTRK3) = assay: Cell viability assay
134 cancer cell lines = assay: Cell viability assay (ATPlite, 72 hours), IC50 on cancer cell line panel

With `O=C(Nc1cnn2ccc(N3CCC[C@@H]3c3cc(F)ccc3F)nc12)N1CC[C@H](O)C1` [larotrectinib] the inhibition at 1 µM [1] was -6%, the “potency in AP-1060 compared to entrectinib” value (AP-1060 (ETV6-NTRK3); cell viability) was “around four-fold more potent” and the IC50 (AP-1060 (ETV6-NTRK3); read-out: IC50 in cell proliferation assay) was 0.009 µM. It also gave an IC50 (134 cancer cell lines; HEC-6, read-out: IC50 in cell proliferation assay, HEC-6 cell line (EGFR p.A289V)) greater than 31.6 µM, an IC50 (134 cancer cell lines; Homo sapiens, 769-P, read-out: IC50 in cell proliferation assay, cell line 769-P) greater than 31.6 µM and an IC50 (134 cancer cell lines; Homo sapiens, 786-0, read-out: IC50 in cell proliferation assay, cell line 786-O) greater than 31.6 µM. The IC50 (134 cancer cell lines; Homo sapiens, A 172, read-out: IC50 in cell proliferation assay, cell line A-172) was greater than 31.6 µM, the IC50 (134 cancer cell lines; Homo sapiens, A204, read-out: IC50 in cell proliferation assay, cell line A-204) was greater than 31.6 µM and the IC50 (134 cancer cell lines; Homo sapiens, A498, read-out: IC50 in cell proliferation assay, cell line A-498) was greater than 31.6 µM. For the same compound, the IC50 (134 cancer cell lines; Homo sapiens, A549, read-out: IC50 in cell proliferation assay, cell line A-549) was greater than 31.6 µM, the IC50 (134 cancer cell lines; Homo sapiens, A704, read-out: IC50 in cell proliferation assay, cell line A-704) was greater than 31.6 µM and the IC50 (134 cancer cell lines; Homo sapiens, A-375, read-out: IC50 in cell proliferation assay, cell line A-375 (BRAF p.V600E)) was greater than 31.6 µM. The IC50 (134 cancer cell lines; Homo sapiens, A-427, read-out: IC50 in cell proliferation assay, cell line A-427) was greater than 31.6 µM, the IC50 (134 cancer cell lines; Homo sapiens, ACHN, read-out: IC50 in cell proliferation assay, cell line ACHN) was greater than 31.6 µM and the IC50 (134 cancer cell lines; Homo sapiens, AN3-CA, read-out: IC50 in cell proliferation assay, cell line AN3-CA (FGFR2 p.N549K)) was greater than 31.6 µM. For the same compound, the IC50 (134 cancer cell lines; Homo sapiens, ASPC1, read-out: IC50 in cell proliferation assay, cell line AsPC-1) was greater than 31.6 µM, the IC50 (134 cancer cell lines; Homo sapiens, AU565, read-out: IC50 in cell proliferation assay, cell line AU565 (ERBB2 amplification)) was greater than 31.6 µM and the IC50 (134 cancer cell lines; Homo sapiens, BT-20, read-out: IC50 in cell proliferation assay, cell line BT-20) was greater than 31.6 µM. It also gave an IC50 (134 cancer cell lines; Homo sapiens, BT-474, read-out: IC50 in cell proliferation assay, cell line BT-474 (ERBB2 amplification)) greater than 31.6 µM, an IC50 (134 cancer cell lines; Homo sapiens, BT-549, read-out: IC50 in cell proliferation assay, cell line BT-549) greater than 31.6 µM and an IC50 (134 cancer cell lines; Homo sapiens, BXPC-3, read-out: IC50 in cell proliferation assay, cell line BxPC-3) greater than 31.6 µM. The IC50 (134 cancer cell lines; Homo sapiens, C-33-A, read-out: IC50 in cell proliferation assay, cell line C-33 A) was greater than 31.6 µM, the IC50 (134 cancer cell lines; Homo sapiens, CAL-27, read-out: IC50 in cell proliferation assay, cell line CAL-27) was greater than 31.6 µM and the IC50 (134 cancer cell lines; Homo sapiens, CCF-STTG1, read-out: IC50 in cell proliferation assay, cell line CCF-STTG1) was greater than 31.6 µM. It also gave an IC50 (134 cancer cell lines; Homo sapiens, CCRF-CEM, read-out: IC50 in cell proliferation assay, cell line CCRF-CEM) greater than 31.6 µM, an IC50 (134 cancer cell lines; Homo sapiens, COLO 205, read-out: IC50 in cell proliferation assay, cell line COLO 205 (BRAF p.V600E)) greater than 31.6 µM and an IC50 (134 cancer cell lines; Homo sapiens, COLO-829, read-out: IC50 in cell proliferation assay, cell line COLO 829 (BRAF p.V600E)) greater than 31.6 µM. The IC50 (134 cancer cell lines; Homo sapiens, DLD-1, read-out: IC50 in cell proliferation assay, cell line DLD-1) was greater than 31.6 µM, the IC50 (134 cancer cell lines; Homo sapiens, DU-4475, read-out: IC50 in cell proliferation assay, cell line DU4475 (BRAF p.V600E)) was greater than 31.6 µM and the IC50 (134 cancer cell lines; Homo sapiens, Daoy, read-out: IC50 in cell proliferation assay, cell line Daoy) was greater than 31.6 µM. For the same compound, the IC50 (134 cancer cell lines; Homo sapiens, DoTc2-4510, read-out: IC50 in cell proliferation assay, cell line DoTc2 4510) was greater than 31.6 µM, the IC50 (134 cancer cell lines; Homo sapiens, EOL1, read-out: IC50 in cell proliferation assay, cell line EoL-1 (FIP1L1-PDGFRA)) was greater than 31.6 µM and the IC50 (134 cancer cell lines; Homo sapiens, FaDu, read-out: IC50 in cell proliferation assay, cell line FaDu) was greater than 31.6 µM. The IC50 (134 cancer cell lines; Homo sapiens, G-361, read-out: IC50 in cell proliferation assay, cell line G-361 (BRAF p.V600E)) was greater than 31.6 µM, the IC50 (134 cancer cell lines; Homo sapiens, HCC827, read-out: IC50 in cell proliferation assay, cell line HCC827 (EGFR exon19del)) was greater than 31.6 µM and the IC50 (134 cancer cell lines; Homo sapiens, HCC4006, read-out: IC50 in cell proliferation assay, cell line HCC4006 (EGFR exon19del)) was greater than 31.6 µM. It also gave an IC50 (134 cancer cell lines; Homo sapiens, HCT-15, read-out: IC50 in cell proliferation assay, cell line HCT 15) greater than 31.6 µM, an IC50 (134 cancer cell lines; Homo sapiens, HCT-116, read-out: IC50 in cell proliferation assay, cell line HCT 116) greater than 31.6 µM and an IC50 (134 cancer cell lines; Homo sapiens, HEC-1, read-out: IC50 in cell proliferation assay, HEC-1 cell line) greater than 31.6 µM. It also gave an IC50 (134 cancer cell lines; Homo sapiens, HEC-1B, read-out: IC50 in cell proliferation assay, HEC-1-B cell line (EGFR p.A864V)) greater than 31.6 µM, an IC50 (134 cancer cell lines; Homo sapiens, HL-60, read-out: IC50 in cell proliferation assay, HL-60 cell line) greater than 31.6 µM and an IC50 (134 cancer cell lines; Homo sapiens, HT, read-out: IC50 in cell proliferation assay, HT cell line) greater than 31.6 µM. The IC50 (134 cancer cell lines; Homo sapiens, HT-1080, read-out: IC50 in cell proliferation assay, HT-1080 cell line) was greater than 31.6 µM, the IC50 (134 cancer cell lines; Homo sapiens, Hs746T, read-out: IC50 in cell proliferation assay, Hs 746.T cell line (MET exon14skip + amplification)) was greater than 31.6 µM and the IC50 (134 cancer cell lines; Homo sapiens, Hs-578T, read-out: IC50 in cell proliferation assay, Hs 578T cell line) was greater than 31.6 µM. For the same compound, the IC50 (134 cancer cell lines; Homo sapiens, HuTu80, read-out: IC50 in cell proliferation assay, HuTu 80 cell line) was greater than 31.6 µM, the IC50 (134 cancer cell lines; Homo sapiens, J82, read-out: IC50 in cell proliferation assay, J82 cell line) was greater than 31.6 µM and the IC50 (134 cancer cell lines; Homo sapiens, Jurkat E6.1, read-out: IC50 in cell proliferation assay, Jurkat E6.1 cell line) was greater than 31.6 µM. For the same compound, the IC50 (134 cancer cell lines; Homo sapiens, K562, read-out: IC50 in cell proliferation assay, K-562 cell line) was greater than 31.6 µM, the IC50 (134 cancer cell lines; Homo sapiens, KATO III, read-out: IC50 in cell proliferation assay, KATO III cell line (FGFR2 amplification)) was greater than 31.6 µM and the IC50 (134 cancer cell lines; Homo sapiens, KG-1, read-out: IC50 in cell proliferation assay, KG-1 cell line (FGFR1OP2-FGFR1)) was greater than 31.6 µM. For the same compound, the IC50 (134 cancer cell lines; Homo sapiens, KLE, read-out: IC50 in cell proliferation assay, KLE cell line) was greater than 31.6 µM, the IC50 (134 cancer cell lines; Homo sapiens, KMS-11, read-out: IC50 in cell proliferation assay, KMS-11 cell line (FGFR3 p.Y373C)) was greater than 31.6 µM and the IC50 (134 cancer cell lines; Homo sapiens, KU812, read-out: IC50 in cell proliferation assay, Ku812 cell line) was greater than 31.6 µM. For the same compound, the IC50 (134 cancer cell lines; Homo sapiens, Kasumi 1, read-out: IC50 in cell proliferation assay, Kasumi-1 cell line (KIT p.N822K)) was greater than 31.6 µM, the IC50 (134 cancer cell lines; Homo sapiens, LC-2-ad, read-out: IC50 in cell proliferation assay, LC-2/ad cell line (CCDC6-RET)) was greater than 31.6 µM and the IC50 (134 cancer cell lines; Homo sapiens, LNCaP-Clone-FGC, read-out: IC50 in cell proliferation assay, LNCaP clone FGC cell line) was greater than 31.6 µM. For the same compound, the IC50 (134 cancer cell lines; Homo sapiens, LS174T, read-out: IC50 in cell proliferation assay, LS174T cell line) was greater than 31.6 µM, the IC50 (134 cancer cell lines; Homo sapiens, LS-411N, read-out: IC50 in cell proliferation assay, LS411N cell line (BRAF p.V600E)) was greater than 31.6 µM and the IC50 (134 cancer cell lines; Homo sapiens, LoVo, read-out: IC50 in cell proliferation assay, LoVo cell line) was greater than 31.6 µM. The IC50 (134 cancer cell lines; Homo sapiens, MCF7, read-out: IC50 in cell proliferation assay, MCF-7 cell line) was greater than 31.6 µM, the IC50 (134 cancer cell lines; Homo sapiens, MDA-MB-231, read-out: IC50 in cell proliferation assay, MDA-MB-231 cell line) was greater than 31.6 µM and the IC50 (134 cancer cell lines; Homo sapiens, MDA-MB-453, read-out: IC50 in cell proliferation assay, MDA-MB-453 cell line) was greater than 31.6 µM. It also gave an IC50 (134 cancer cell lines; Homo sapiens, MDA-MB-468, read-out: IC50 in cell proliferation assay, MDA-MB-468 cell line) greater than 31.6 µM, an IC50 (134 cancer cell lines; Homo sapiens, MG-63, read-out: IC50 in cell proliferation assay, MG-63 cell line) greater than 31.6 µM and an IC50 (134 cancer cell lines; Homo sapiens, MIA PaCa-2, read-out: IC50 in cell proliferation assay, MIA PaCa-2 cell line) greater than 31.6 µM. The IC50 (134 cancer cell lines; Homo sapiens, MKN-45, read-out: IC50 in cell proliferation assay, MKN45 cell line (MET amplification)) was greater than 31.6 µM.

From article PMC9516332 (Frontiers in Oncology, 2022)
